# According to patent publication US20120108431A1, “PLANT GROWTH REGULATOR ADDITIVE” (TAMINCO, NAAMLOZE VENNOOTSCHAP, priority 2009, published 2012):
# “And” between values parts separate entries of the source, which are not always exact repeats. Equal values may be shown once.
# Tests used:
# Assay type in all cases: in vivo
# [1] = tested on: Winter barley varieties; assay: Winter barley varieties UK field trials, mean root weight per plant; details: for Mean Root Weight Per Plant (g), individual replicate: GS33, individual replicates, listed as B.; for Mean Root Weight Per Plant (g), Mean: GS33, mean of replicates; for Increase in Mean Root Weight Per Plant: GS33, vs A. Control
# Text: G. WINTER BARLEY VARIETIES—UK field trials. Formulations applied at mid-tillering and measured at third node stage (GS33).
# (§1) Treatments compared: • A. Control vs • B. Chlormequat chloride (620 g/litre) applied at 1.0 litre in 250 litres water per hectare. • C. Anthranilic Acid (1 g/ha)+Acetaminophen (3 g/ha) in 250 litres water per hectare. • B.+C. Combination of B. and C. above, in 250 litres water per hectare.
# Mean Root Weight Per Plant (g)—three winter barley varieties: individual replicates and mean values.
# [2] = tested on: Soybean; assay: Soybean Trial 1, pot trial, foliar spray at V2-V3; details: soybean
# [3] = tested on: Winter barley; assay: Winter barley Trial 5, field trial, mean of nine varieties
# Text: (§2) The applied concentration of chemical can vary widely depending on the water volume applied to plants as well as other factors such as plant age and size, and plant sensitivity to the product. Typical rates of AN-related compounds would be 1-10 g/ha (preferably and as used in these trials, 1 g per hectare was applied), typical rates of acetaminophen or its derivatives would be 1-10 g/ha (preferably and as used in these trials, 3 g per hectare was applied). Typical rates of the agrochemically acceptable additive of the present invention would be 1-10 g/ha (preferably and as used in these trials, less than 3 g per hectare was applied). The rate of other components such as spreaders and stickers can be 50-200 ml per ha.
# E. WINTER BARLEY TRIAL 5—Field trial, sown 14 Oct. 2007. Mean of Nine Varieties—mean values from varieties Pearl, Flagon, Cassata, Wintmalt, Saffron, Suzuka, Marcorel, Sequel, Volume. Location: Great Dunmow, Essex, UK, 2008. Seed rate 400 seeds/sq metre. Formulations applied mid-tillering (GS23), and assessed at GS33 and at maturity.
# [4] = tested on: Winter wheat varieties; assay: Winter wheat varieties UK field trials, mean root weight per plant; details: for Mean Root Weight Per Plant (g), individual replicate: GS33, individual replicates, listed as B.; for Mean Root Weight Per Plant (g), Mean: GS33, mean of replicates; for Increase in Mean Root Weight Per Plant: GS33, vs A. Control
# Text: F. WINTER WHEAT VARIETIES—UK field trials. Formulations applied at mid-tillering and measured at third node stage (GS33).
# as §1
# Mean Root Weight Per Plant (g)—three winter wheat varieties: individual replicates and mean values. Mean root weight per plant (g) is a mean value from 10 median plants taken from a representative 20 plant sample per plot.
# [5] = tested on: Navy bean cv Primel; assay: Navy bean Trial 2, pot trial, foliar spray at V2-V3; details: navy bean
# [6] = tested on: Winter wheat; assay: Winter wheat Trial 4, field trial, mean of nine varieties
# Text: as §2
# D. WINTER WHEAT TRIAL 4—Field trial, sown 18 Oct. 2007. Mean of Nine Varieties—mean values from varieties Solstice, Battalion, Duxford, Marksman, Gallant, Panorama, Qplus, Cassius, Alchemy. Location: Great Dunmow, Essex, UK, 2008. Seed rate 400 seeds/sq metre. Formulations applied mid-tillering (GS23), and assessed at GS33 and at maturity.
# [7] = tested on: Winter wheat cv Limerick; assay: Winter wheat Trial 3, pot trial, sprayed at GS23
# Experimental: The applied concentration of chemical can vary widely depending on the water volume applied to plants as well as other factors such as plant age and size, and plant sensitivity to the product. […] The rate of other components such as spreaders and stickers can be 50-200 ml per ha. C. […] Sprayed: 10 June, at GS23 (early-mid tillering). Plants were scored/assessed at GS33 on 12 July, with other measurements at crop maturity.
# [8] = score 0-9, 28 days after spraying
# [9] = increase over the line given as 0 (untreated or growth regulator alone)
# [10] = winter wheat pots, increase over the line given as 0 (untreated or growth regulator alone)
compound,measurement,setting,value
"C[N+](C)(C)CCCl [CCC, Chlormequat chloride]","Mean Root Weight Per Plant (g), individual replicate",[1]; winter barley variety Flagon,4.0 g (2×) and 3.9 g and 4.2 g
same,"Mean Root Weight Per Plant (g), Mean",[1]; winter barley variety Flagon,4.03 g
same,Increase in Mean Root Weight Per Plant,[1]; winter barley variety Flagon,+1.65 g
same,"Mean Root Weight Per Plant (g), individual replicate",[1]; winter barley variety Marcorel,2.8 g (3×) and 2.9 g
same,"Mean Root Weight Per Plant (g), Mean",[1]; winter barley variety Marcorel,2.83 g
same,Increase in Mean Root Weight Per Plant,[1]; winter barley variety Marcorel,+0.85 g
same,"Mean Root Weight Per Plant (g), individual replicate",[1]; winter barley variety Suzuka,4.0 g and 3.0 g (3×)
same,"Mean Root Weight Per Plant (g), Mean",[1]; winter barley variety Suzuka,3.25 g
same,Increase in Mean Root Weight Per Plant,[1]; winter barley variety Suzuka,+0.90 g
same,No of Large Pod Bearing Branches/Plant at Harvest,[2]; at harvest,1.0
same,Final Seed Yield at Harvest (g per pot),[2]; one plant per pot,36.0 g per pot
same,Plant Biomass Score (0-9) at Harvest,[2]; score 0-9,6.0
same,Rooting (0-9) + 28 Days,[2]; [8],4.4
same,Final Seed Yield + %,[2]; [9],0%
same,No of Large Pod Bearing Branches/Plant + %,[2]; [9],0%
same,Plant Biomass Score + %,[2]; [9],0%
same,Rooting + %,[2]; [9],0%
same,Final Ear Wt (10 ears),[3]; CCC 1.0 l/ha,22.8 g
same,Mean Root Diameter GS33 (cm),"[3]; GS33, CCC 1.0 l/ha",2.05 cm
same,Mean Root Length GS33 (cm),"[3]; GS33, CCC 1.0 l/ha",3.66 cm
same,Mean Root Weight GS33,"[3]; GS33, CCC 1.0 l/ha",3.06 g
same,No of “large” Stems GS33,"[3]; GS33, CCC 1.0 l/ha",4.23
same,Total Stem Number GS33,"[3]; GS33, CCC 1.0 l/ha",6.01
same,Mean % Lodged Maturity,"[3]; at maturity, CCC 1.0 l/ha",26.3%
same,"Mean Root Weight Per Plant (g), individual replicate",[4]; winter wheat variety Battalion,4.1 g and 4.3 g and 4.4 g and 4.2 g
same,"Mean Root Weight Per Plant (g), Mean",[4]; winter wheat variety Battalion,4.25 g
same,Increase in Mean Root Weight Per Plant,[4]; winter wheat variety Battalion,+1.12 g
same,"Mean Root Weight Per Plant (g), individual replicate",[4]; winter wheat variety Marksman,4.3 g and 4.4 g (2×) and 4.5 g
same,"Mean Root Weight Per Plant (g), Mean",[4]; winter wheat variety Marksman,4.40 g
same,Increase in Mean Root Weight Per Plant,[4]; winter wheat variety Marksman,+1.10 g
same,"Mean Root Weight Per Plant (g), individual replicate",[4]; winter wheat variety Solstice,3.6 g (2×) and 3.7 g and 3.8 g
same,"Mean Root Weight Per Plant (g), Mean",[4]; winter wheat variety Solstice,3.68 g
same,Increase in Mean Root Weight Per Plant,[4]; winter wheat variety Solstice,+0.9 g
same,No of Large Pod Bearing Branches/Plant at Harvest,[5]; at harvest,1.4
same,Final Seed Yield at Harvest (g per pot),[5]; one plant per pot,55.6 g per pot
same,Plant Biomass Score (0-9) at Harvest,[5]; score 0-9,5.4
same,Rooting (0-9) + 28 Days,[5]; [8],7.4
same,Final Seed Yield + %,[5]; [9],0%
same,No of Large Pod Bearing Branches/Plant + %,[5]; [9],0%
same,Plant Biomass Score + %,[5]; [9],0%
same,Rooting + %,[5]; [9],0%
same,Final Ear Wt (10 ears),[6]; CCC 1.0 l/ha,18.4 g
same,Mean Root Diameter GS33 (cm),"[6]; GS33, CCC 1.0 l/ha",2.51 cm
same,Mean Root Length GS33 (cm),"[6]; GS33, CCC 1.0 l/ha",2.40 cm
same,Mean Root Weight GS33,"[6]; GS33, CCC 1.0 l/ha",4.10 g
same,No of “large” Stems GS33,"[6]; GS33, CCC 1.0 l/ha",2.95
same,Total Stem Number GS33,"[6]; GS33, CCC 1.0 l/ha",4.40
same,Mean % Lodged Maturity,"[6]; at maturity, CCC 1.0 l/ha",1.7%
same,Total No of Shoots/Plant at GS33,"[7]; winter wheat pots, GS33",3.8
same,Total No of “Large” Shoots/Plant at GS33,"[7]; winter wheat pots, GS33",2.6
same,Rooting (0-9) + 28 Days,"[7]; winter wheat pots, score 0-9, 28 days after spraying",6.0
same,Final Seed Yield + %,[7]; [10],0%
same,Rooting + %,[7]; [10],0%
same,Total No of Shoots/Plant + %,[7]; [10],0%
same,Total No of “Large” Shoots/Plant + %,[7]; [10],0%
same,Final Seed Yield at Harvest (g per pot),"[7]; winter wheat, eight plants per pot",36.4 g per pot
